Laboratory results reported in ChEMBL document CHEMBL1142597, “Arugosins G and H: prenylated polyketides from the marine-derived fungus Emericellanidulans var. acristata” (J Nat Prod, 2006).
Activity calls are given as the source filed them. The rule behind the calls is not given here.

Assays:
PBMC [1] = assay: Stimulation of IL4 production in human PBMC at 0.1 ug/mL after 24 hrs by flow cytometry with cytometric bead array method; format: functional, cell-based
PBMC [2] = assay: Stimulation of IL10 production in human PBMC at 1 ug/mL after 24 hrs by flow cytometry with cytometric bead array method; format: functional, cell-based
PBMC [3] = assay: Cytotoxicity against human PBMC at 1 ug/mL; format: cell-based
PBMC [4] = assay: Stimulation of IL4 production in human PBMC at 1 ug/mL after 24 hrs by flow cytometry with cytometric bead array method; format: functional, cell-based
PBMC [5] = assay: Stimulation of IL6 production in human PBMC at 0.1 ug/mL after 24 hrs by flow cytometry with cytometric bead array method; format: functional, cell-based
PBMC [6] = assay: Stimulation of TNFalpha production in human PBMC at 0.1 ug/mL after 24 hrs by flow cytometry with cytometric bead array method; format: functional, cell-based
PBMC [7] = assay: Stimulation of IL10 production in human PBMC at 0.1 ug/mL after 24 hrs by flow cytometry with cytometric bead array method; format: functional, cell-based
PBMC [8] = assay: Stimulation of IL6 production in human PBMC at 1 ug/mL after 24 hrs by flow cytometry with cytometric bead array method; format: functional, cell-based
PBMC [9] = assay: Cytotoxicity against human PBMC at 0.1 ug/mL; format: cell-based
PBMC [10] = assay: Stimulation of IFN-gamma production in human PBMC at 1 ug/mL after 24 hrs by flow cytometry with cytometric bead array method; format: functional, cell-based
PBMC [11] = assay: Stimulation of IL2 production in human PBMC at 0.1 ug/mL after 24 hrs by flow cytometry with cytometric bead array method; format: functional, cell-based
PBMC [12] = assay: Stimulation of IFN-gamma production in human PBMC at 0.1 ug/mL after 24 hrs by flow cytometry with cytometric bead array method; format: functional, cell-based
PBMC [13] = assay: Stimulation of TNFalpha production in human PBMC at 1 ug/mL after 24 hrs by flow cytometry with cytometric bead array method; format: functional, cell-based
PBMC [14] = assay: Stimulation of IL2 production in human PBMC at 1 ug/mL after 24 hrs by flow cytometry with cytometric bead array method; format: functional, cell-based
[Chlorella] fusca = Antialgal activity against 'Chlorella' fusca at 50 ug/disk by agar diffusion assay; format: functional; settings: Scenedesmus fuscus; read-out: IZ
Mycotypha microspora = assay: Antifungal activity against Mycotypha microspora at 50 ug/disk by agar diffusion assay; format: functional; settings: read-out: IZ

SMILES | Activity (PBMC [1]) | Activity (PBMC [2]) | Activity (PBMC [3]) | Activity (PBMC [4]) | Activity (PBMC [5]) | Activity (PBMC [6]) | Activity (PBMC [7]) | Activity (PBMC [8]) | Activity (PBMC [9]) | Activity (PBMC [10]) | Activity (PBMC [11]) | Activity (PBMC [12]) | Activity (PBMC [13]) | Activity (PBMC [14]) | zone of inhibition at 50 µg/disc ([Chlorella] fusca) | zone of inhibition at 50 µg/disc (Mycotypha microspora)
C=C1CC[C@@H]2[C@](C)(CC[C@H](O)[C@@]2(C)CCC=C(C)C)[C@@H]1Cc1c[nH]c2ccccc12 [EMINDOLE DA] | inactive | inactive | Non-toxic | inactive | inactive | inactive | inactive | inactive | Non-toxic | inactive | inactive | inactive | inactive | inactive | – | –
CC(C)=CCOc1c(C)cc2oc3c(CC=C(C)C)ccc(O)c3c(=O)c2c1CO [EMERICELLIN] | inactive | inactive | Non-toxic | inactive | inactive | inactive | inactive | inactive | Non-toxic | inactive | inactive | inactive | inactive | inactive | – | –
CC(C)=CCOc1c(C)cc(O)c2c1C(O)Oc1c(CC=C(C)C)ccc(O)c1C2=O (centres undefined) [ARUGOSIN B] | inactive | inactive | Non-toxic | inactive | inactive | inactive | inactive | inactive | Non-toxic | inactive | inactive | inactive | inactive | inactive | – | –
C=C(C)[C@H]1COc2c(C)cc3oc4c(CC=C(C)C)ccc(O)c4c(=O)c3c2[C@@H]1O [SHAMIXANTHONE] | inactive | inactive | Non-toxic | inactive | inactive | inactive | inactive | inactive | Non-toxic | inactive | inactive | inactive | inactive | inactive | – | –
CC(C)=CCOc1c(C)cc(O)c2c1C(O)Oc1c(CC=C(C)C)cc(CC=C(C)C)c(O)c1C2=O (centres undefined) [ARUGOSINS G] | inactive | inactive | Non-toxic | inactive | inactive | inactive | inactive | inactive | Non-toxic | inactive | inactive | inactive | inactive | inactive | – | –
O=C1OC(O)C(Cc2ccccc2)=C1c1ccccc1 (centres undefined) [MICROPERFURANONE] | inactive | inactive | Non-toxic | inactive | inactive | inactive | inactive | inactive | Non-toxic | inactive | inactive | inactive | inactive | inactive | – | –
CC(C)=CCOc1c(C)cc(O)c2c1C(O)Oc1ccc(CC=C(C)C)c(O)c1C2=O (centres undefined) [ARUGOSIN A] | inactive | inactive | Non-toxic | inactive | inactive | inactive | inactive | inactive | Non-toxic | inactive | inactive | inactive | inactive | inactive | – | –
CC(C)=CCc1ccc(O)c(C(=O)c2c(O)cc(C)c(O)c2C=O)c1O [ARUGOSINS H] | inactive | inactive | Non-toxic | inactive | inactive | inactive | inactive | inactive | Non-toxic | inactive | inactive | inactive | inactive | inactive | 2 mm | 3 mm
